Data on three compounds can be found in article PMC3248787 (Bioorganic & medicinal chemistry letters, 2011).

One test addresses T1, purified HDAC8 (Homo sapiens, UniProt Q9BY41).
T1 sequence (Q9BY41 1-377): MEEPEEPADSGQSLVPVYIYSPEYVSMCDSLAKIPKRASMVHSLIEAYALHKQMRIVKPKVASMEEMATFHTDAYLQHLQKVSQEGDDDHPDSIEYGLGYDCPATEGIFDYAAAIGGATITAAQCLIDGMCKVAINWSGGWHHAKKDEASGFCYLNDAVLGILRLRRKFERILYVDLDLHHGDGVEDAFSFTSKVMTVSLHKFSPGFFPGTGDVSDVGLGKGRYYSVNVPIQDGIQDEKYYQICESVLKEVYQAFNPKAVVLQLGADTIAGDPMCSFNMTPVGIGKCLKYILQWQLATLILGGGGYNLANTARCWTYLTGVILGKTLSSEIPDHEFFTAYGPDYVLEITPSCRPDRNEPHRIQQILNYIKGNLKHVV
In words: small-molecule microarray. The test is classed as binding. The conditions noted are these: SMM screen.

A further test relates to trypsin. In words: trypsin counter screen. (In general: Counterscreens check selectivity or assay interference.)
The subject of test [1] is acetylated lysine in HeLa cells. In words: immunofluorescence, acetylated lysine in HeLa cells. The test is classed as cell-based. The conditions noted are these: 16 h, normalized to DMSO control.
The subject of test [2] is acetylated α-tubulin in HeLa cells. In words: immunofluorescence, acetylated α-tubulin in HeLa cells. It counts as cell-based. The conditions noted are these: 16 h, normalized to DMSO control.

As to `CC(=O)Nc1ccc(C(=O)CSc2nc(C)cc(O)n2)cc1` [Compound 7], the “binding to purified HDAC8 on small-molecule microarray” value at purified HDAC8 is listed as “binder”. Also, the “interference with the proteolytic activity of trypsin” value in the test with trypsin is “does not interfere with the proteolytic activity of trypsin”.
Consider `Nc1ccccc1NC(=O)c1ccc(CNC(=O)OCc2cccnc2)cc1` [MS-275], for which, in test [1], the acetylated lysine level result is given as “increased global lysine acetylation”. The “acetylated α-tubulin level” value in test [2] is given as “little change in tubulin acetylation”.
As to `O=C(CCCCCCC(=O)Nc1ccccc1)NO` [SAHA, suberoylanilide hydroxamic acid], in test [1], the acetylated lysine level entry was “increases both global lysine and α-tubulin acetylation levels”. Further, the “acetylated α-tubulin level” value in test [2] was “increases both global lysine and α-tubulin acetylation levels”.
